Results from patent publication US5654290A, “Polyunsaturated fatty acid based drugs” (Institut National de la Sante et de la Recherche Medicale, priority 1992, dated 1997).

How the values were obtained:
platelets [1] = conditions: cited from earlier work
TXA2 /PGH2 receptor [2] = conditions: cited from earlier work
platelets [3] = conditions: concentrations which do not bring the TXA2/PGH2 receptor into play; cited from earlier work
platelets [4] = conditions: concentrations which do not bring the TXA2/PGH2 receptor into play; cited from earlier work; remark: listed apart in the source
[5] = test system: alpha2 -adrenergic receptor; conditions: platelet membranes; cited from earlier work
TXA2 /PGH2 receptor [6] = conditions: whole platelets or solubilized platelet membranes; cited from earlier work
brain [7] = experiment: Distribution of the radioactivity between the lipid classes of the brain after intravenous injection of lyso-PCDHA or non-esterified DHA; type: in vivo, rat; conditions: for radioactivity in OTHERS of the brain / radioactivity in AG of the brain / radioactivity in DG of the brain / radioactivity in LN of the brain / radioactivity in Lyso-PC of the brain / radioactivity in MG of the brain / radioactivity in PC of the brain / radioactivity in PE of the brain / radioactivity in PS of the brain / radioactivity in Pi of the brain / radioactivity in TG of the brain: injection of Lyso-PCDHA
From the text: (§1) The animal studied is a 20-day-old rat in which the cerebral lipid metabolism is at its peak.
(§2) The lyso-PC's are labelled on the fatty acid and the choline, attached to albumin and administered intravenously (50). […] It therefore appears that the lyso-PCDHA's attached to albumin constitute a particularly preferred form of supply of DHA to the developing brain.

brain [8] = experiment: Capture by the brain, in rats, of lyso-PC's; type: in vivo; conditions: 20-day-old rat, intravenous, attached to albumin; compared with lyso-PC's comprising 18:1, 18:2 and 20:4
From the text: (§3) FIG. 3 represents the variation of the radio-activity recovered in the total lipids: A from the brain, B from the kidney, C from the heart and D from the liver, after injecting tritiated DHA in free form (black circle) or in the form of 2-DHA-1-lyso-PC (black triangle).
as §1, §2

kidney = experiment: Capture by the kidney, in rats, of lyso-PCDHA and non-esterified DHA; type: in vivo; conditions: 20-day-old rat, intravenous; lyso-PCDHA vs non-esterified DHA
From the text: as §3, §1, §2

liver = experiment: Capture by the liver, in rats, of lyso-PCDHA and non-esterified DHA; type: in vivo; conditions: 20-day-old rat, intravenous; lyso-PCDHA vs non-esterified DHA
From the text: as §3, §1, §2

heart = experiment: Capture by the heart, in rats, of lyso-PCDHA and non-esterified DHA; type: in vivo; conditions: 20-day-old rat, intravenous; lyso-PCDHA vs non-esterified DHA
From the text: as §3, §1, §2

[9] = incorporation in vitro into the platelet lipid reserves, by means of albumin

CC/C=C\C/C=C\C/C=C\C/C=C\C/C=C\CCCC(=O)O [20:5n-3, eicosapentanoic acid]
aggregability of the platelets in response to U 46.619 (platelets [1]; [9]): loss of aggregability of the platelets in response to U 46.619
inhibition of platelet aggregation induced by U 46.619 (platelets [1]; non-esterified fatty acid): competitively inhibit platelet aggregation induced by U 46.619
affinity of U 46.619 for its receptor (TXA2 /PGH2 receptor [2]; [9]): decrease in the affinity of the agonist for its receptor
inhibition of specific binding of U 46.619 to washed platelets (TXA2 /PGH2 receptor [2]; non-esterified fatty acid): competitively inhibit
effect on platelet aggregation induced by thrombin (platelets [3]): none of these fatty acids affects the platelet aggregation
effect on platelet aggregation induced by ionophore A 23187 (platelets [4]): none of these fatty acids affects the platelet aggregation
effect on binding of yohimbine to alpha2-adrenergic receptor [5]: do not modify binding of yohimbine
alteration of the TXA2 /PGH2 receptor (TXA2 /PGH2 receptor [6]): specifically alter the TXA2 /PGH2 receptor

CC/C=C\C/C=C\C/C=C\C/C=C\C/C=C\C/C=C\CCC(=O)OC(CO)COP(=O)([O-])OCC[N+](C)(C)C (stereo not shown) [lyso-PCDHA, 1-lyso-2-DHA-glycerophosphocholine]
esterification in the phosphatidylethanolamines (brain [7]; brain, rat, after injection): very rapidly, a differential esterification is produced in the phosphatidylethanolamines
reacylation of DHA in the phosphatidylcholines (brain [7]; brain, rat, first stages after the injection): low and is visible only in the first stages after the injection
radioactivity in OTHERS of the brain (brain [7]): 3.7 % of the radioactivity of the total lipids
radioactivity in AG of the brain (brain [7]; 2.5 min): 15.3 % of the radioactivity of the total lipids
radioactivity in DG of the brain (brain [7]; 2.5 min): 10.8 % of the radioactivity of the total lipids
radioactivity in LN of the brain (brain [7]; 2.5 min): 29.3 % of the radioactivity of the total lipids
radioactivity in Lyso-PC of the brain (brain [7]; 2.5 min): 4.1 % of the radioactivity of the total lipids
radioactivity in MG of the brain (brain [7]; 2.5 min): 2.2 % of the radioactivity of the total lipids
radioactivity in PC of the brain (brain [7]; 2.5 min): 25.6 % of the radioactivity of the total lipids
radioactivity in PE of the brain (brain [7]; 2.5 min): 28.2 % of the radioactivity of the total lipids
radioactivity in PS of the brain (brain [7]; 2.5 min): 3.9 % of the radioactivity of the total lipids
radioactivity in Pi of the brain (brain [7]; 2.5 min): 8.9 % of the radioactivity of the total lipids
radioactivity in TG of the brain (brain [7]; 2.5 min): 1.0 % of the radioactivity of the total lipids
radioactivity in AG of the brain (brain [7]; 5 min): 21.2 % of the radioactivity of the total lipids
radioactivity in DG of the brain (brain [7]; 5 min): 9.3 % of the radioactivity of the total lipids
radioactivity in LN of the brain (brain [7]; 5 min): 35.3 % of the radioactivity of the total lipids
radioactivity in Lyso-PC of the brain (brain [7]; 5 min): 0.4 % of the radioactivity of the total lipids
radioactivity in MG of the brain (brain [7]; 5 min): 2.3 % of the radioactivity of the total lipids
radioactivity in OTHERS of the brain (brain [7]; 5 min): 11.4 % of the radioactivity of the total lipids
radioactivity in PC of the brain (brain [7]; 5 min): 17.8 % of the radioactivity of the total lipids
radioactivity in PE of the brain (brain [7]; 5 min): 26.3 % of the radioactivity of the total lipids
radioactivity in PS of the brain (brain [7]; 5 min): 5.3 % of the radioactivity of the total lipids
radioactivity in Pi of the brain (brain [7]; 5 min): 3.4 % of the radioactivity of the total lipids
radioactivity in TG of the brain (brain [7]; 5 min): 2.5 % of the radioactivity of the total lipids
radioactivity in AG of the brain (brain [7]; 6.5 min): 17.2 % of the radioactivity of the total lipids
radioactivity in DG of the brain (brain [7]; 6.5 min): 9.4 % of the radioactivity of the total lipids
radioactivity in LN of the brain (brain [7]; 6.5 min): 31.6 % of the radioactivity of the total lipids
radioactivity in Lyso-PC of the brain (brain [7]; 6.5 min): 1.2 % of the radioactivity of the total lipids
radioactivity in MG of the brain (brain [7]; 6.5 min): 2.7 % of the radioactivity of the total lipids
radioactivity in PC of the brain (brain [7]; 6.5 min): 26.2 % of the radioactivity of the total lipids
radioactivity in PE of the brain (brain [7]; 6.5 min): 28.1 % of the radioactivity of the total lipids
radioactivity in PS of the brain (brain [7]; 6.5 min): 5.3 % of the radioactivity of the total lipids
radioactivity in Pi of the brain (brain [7]; 6.5 min): 3.7 % of the radioactivity of the total lipids
radioactivity in TG of the brain (brain [7]; 6.5 min): 2.3 % of the radioactivity of the total lipids
radioactivity in AG of the brain (brain [7]; 15 min): 13.9 % of the radioactivity of the total lipids
radioactivity in DG of the brain (brain [7]; 15 min): 5.8 % of the radioactivity of the total lipids
radioactivity in LN of the brain (brain [7]; 15 min): 23.7 % of the radioactivity of the total lipids
radioactivity in Lyso-PC of the brain (brain [7]; 15 min): 0.2 % of the radioactivity of the total lipids
radioactivity in MG of the brain (brain [7]; 15 min): 1.8 % of the radioactivity of the total lipids
radioactivity in OTHERS of the brain (brain [7]; 15 min): 2.6 % of the radioactivity of the total lipids
radioactivity in PC of the brain (brain [7]; 15 min): 26.8 % of the radioactivity of the total lipids
radioactivity in PE of the brain (brain [7]; 15 min): 38.9 % of the radioactivity of the total lipids
radioactivity in PS of the brain (brain [7]; 15 min): 4.6 % of the radioactivity of the total lipids
radioactivity in Pi of the brain (brain [7]; 15 min): 3.2 % of the radioactivity of the total lipids
radioactivity in TG of the brain (brain [7]; 15 min): 2.3 % of the radioactivity of the total lipids
radioactivity in AG of the brain (brain [7]; 30 min): 11 % of the radioactivity of the total lipids
radioactivity in DG of the brain (brain [7]; 30 min): 4 % of the radioactivity of the total lipids
radioactivity in LN of the brain (brain [7]; 30 min): 17.8 % of the radioactivity of the total lipids
radioactivity in Lyso-PC of the brain (brain [7]; 30 min): 0 % of the radioactivity of the total lipids
radioactivity in MG of the brain (brain [7]; 30 min): 0.7 % of the radioactivity of the total lipids
radioactivity in OTHERS of the brain (brain [7]; 30 min): 3.8 % of the radioactivity of the total lipids
radioactivity in PC of the brain (brain [7]; 30 min): 24.1 % of the radioactivity of the total lipids
radioactivity in PE of the brain (brain [7]; 30 min): 46.4 % of the radioactivity of the total lipids
radioactivity in PS of the brain (brain [7]; 30 min): 5.0 % of the radioactivity of the total lipids
radioactivity in Pi of the brain (brain [7]; 30 min): 2.6 % of the radioactivity of the total lipids
radioactivity in TG of the brain (brain [7]; 30 min): 2.1 % of the radioactivity of the total lipids
radioactivity in AG of the brain (brain [7]; 60 min): 10.0 % of the radioactivity of the total lipids
radioactivity in DG of the brain (brain [7]; 60 min): 2.6 % of the radioactivity of the total lipids
radioactivity in LN of the brain (brain [7]; 60 min): 16.7 % of the radioactivity of the total lipids
radioactivity in Lyso-PC of the brain (brain [7]; 60 min): 0 % of the radioactivity of the total lipids
radioactivity in MG of the brain (brain [7]; 60 min): 0.4 % of the radioactivity of the total lipids
radioactivity in OTHERS of the brain (brain [7]; 60 min): 5.3 % of the radioactivity of the total lipids
radioactivity in PC of the brain (brain [7]; 60 min): 24.9 % of the radioactivity of the total lipids
radioactivity in PE of the brain (brain [7]; 60 min): 49.2 % of the radioactivity of the total lipids
radioactivity in PS of the brain (brain [7]; 60 min): 3.9 % of the radioactivity of the total lipids
radioactivity in Pi of the brain (brain [7]; 60 min): 2.6 % of the radioactivity of the total lipids
radioactivity in TG of the brain (brain [7]; 60 min): 1.4 % of the radioactivity of the total lipids
capture by the brain (brain [8]): particularly well captured by the brain
capture by the kidney (kidney): captures the two forms of supply in essentially the same manner
capture by the liver (liver): do not capture the lyso-PCDHA's as effectively as the non-esterified DHA
capture by the heart (heart): do not capture the lyso-PCDHA's as effectively as the non-esterified DHA
